Measured values taken from US20120041012A1, “SUBSTITUTED SPIROCYCLIC AMINES USEFUL AS ANTIDIABETIC COMPOUNDS” (priority 2009, published 2012).

Experiments:
[1] = molecular target: T1, SSTR5 (Homo sapiens, UniProt P35346); test: Functional assay of SSTR5 mediated cyclic AMP production in SSTR5 expressing CHO cells; format: cell-based, human or mouse; conditions: Table 2; FSK plus SS-28; read-out: SSTR5 (cAMP) IC50
[2] = molecular target: T1, SSTR5; test: SSTR5 receptor-ligand binding assay, CHO-K1 cell membranes, 125I-SRIF radioligand; parameters: expressed in transfected cells; host or cells: CHO-K1 (membranes); conditions: Table 2
Method: The receptor-ligand binding assays of all 5 subtype of SSTRs were performed with membranes isolated from Chinese hamster ovary (CHO)-K1 cells stably expressing the cloned human somatostatin receptors in 96-well format as previous reported.
The stable cell lines for SSTR1-SSTR5 were developed by stably transfecting with DNA for all five SSTRs using Lipofectamine. […] The assay buffer consisted of 50 mM TrisHCl (pH 7.8) with 1 mM EGTA, 5 mM MgCl2, leupeptin (10 μg/mL), pepstatin (10 μg/mL), bacitracin (200 μg/mL), and aprotinin (0.5 μg/mL). CHO-K1 cell membranes, radiolabeled somatostatin, and unlabeled test compounds were resuspended or diluted in this assay buffer. Unlabeled test compounds were examined over a range of concentrations from 0.01 nM to 10,000 nM.

T1 sequence (P35346 whole entry): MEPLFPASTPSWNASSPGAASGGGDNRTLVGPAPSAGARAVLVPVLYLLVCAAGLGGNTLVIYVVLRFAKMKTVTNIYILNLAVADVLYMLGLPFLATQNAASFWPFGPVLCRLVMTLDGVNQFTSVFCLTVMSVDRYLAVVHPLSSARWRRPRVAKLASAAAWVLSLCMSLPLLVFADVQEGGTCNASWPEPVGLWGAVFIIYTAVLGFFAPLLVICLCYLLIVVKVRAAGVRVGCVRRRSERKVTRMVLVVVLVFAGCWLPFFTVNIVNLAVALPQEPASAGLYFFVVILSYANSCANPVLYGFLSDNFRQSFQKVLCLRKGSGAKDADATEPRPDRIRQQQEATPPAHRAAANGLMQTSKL

Row | SMILES | IC50 [1] | Ki [2]
1 | CCOc1cc(CN2CCC3(CC2)CNC(=O)C3)cc(OCC)c1-c1ccc(F)cc1 [Example 1, 8-[(2,6-diethoxy-4′-fluorobiphenyl-4-yl)methyl]-2,8-diazaspiro[4.5]decan-3-one] | 52 nM | 21 nM
2 | CCOc1cc(CN2CCC3(CC2)CC(=O)N(c2ccc(C(N)=O)cc2)C3)cc(OCC)c1-c1ccc(F)cc1 [Example 3, 4-{8-[(2,6-diethoxy-4′-fluorobiphenyl-4-yl)methyl]-3-oxo-2,8-diazaspiro[4.5]dec-2-yl}benzamide trifluoromethyl acetate] | 33 nM | 8.7 nM
3 | CCOc1cc(CN2CCC3(CC2)CC(=O)N(c2ccc(C(=O)O)cc2)C3)cc(OCC)c1Br [Example 5] | 3.9 nM | 7.5 nM
4 | CCOc1cc(CN2CCC3(CC2)CC(=O)N(c2ccc(-c4noc(=O)[nH]4)cc2)C3)cc(OCC)c1-c1ccc(F)cc1 [Example 6, 8-[(2,6-diethoxy-4′-fluorobiphenyl-4-yl)methyl]-2-[4-(5-oxo-4,5-dihydro-1,2,4-oxadiazol-3-yl)phenyl]-2,8-diazaspiro[4.5]decan-3-one] | 1.8 nM | 1 nM
5 | CCOc1cc(CN2CCC3(CC2)CC(=O)N(c2ccc(-c4nnn[nH]4)cc2)C3)cc(OCC)c1-c1ccc(F)cc1 [Example 7, 8-[(2,6-diethoxy-4′-fluorobiphenyl-4-yl)methyl]-2-[4-(1-H-tetrazol-5-yl)phenyl]-2,8-diazaspiro[4.5]decan-3-one trifluoromethyl acetate] | 1.3 nM | 0.76 nM
6 | CCOc1cc(CN2CCC3(CC2)CC(=O)N(CC(=O)O)C3)cc(OCC)c1-c1ccc(F)cc1 [Example 8, {8-[(2,6-diethoxy-4′-fluorobiphenyl-4-yl)methyl]-3-oxo-2,8-diazaspiro[4.5]dec-2-yl}acetic acid trifluoromethyl acetate] | 159 nM | 190 nM
7 | CCOc1cc(CN2CCC3(CC2)CC(=O)N(CCO)C3)cc(OCC)c1-c1ccc(F)cc1 [Example 9, 8-[(2,6-diethoxy-4′-fluorobiphenyl-4-yl)methyl]-2-(2-hydroxyethyl)-2,8-diazaspiro[4.5]decan-3-one trifluoromethyl acetate] | 159 nM | 71 nM
8 | CCOc1cc(CN2CCC3(CC2)CC(=O)N(CCCC(=O)O)C3)cc(OCC)c1-c1ccc(F)cc1 [Example 23] | 44 nM | 53 nM
9 | CCOc1cc(CN2CCC3(CC2)CC(=O)N(c2ccc(C(=O)O)cc2)C3)cc(OCC)c1-c1ccc(C(F)(F)F)cc1 [Example 35] | 0.62 nM | 0.86 nM
10 | CCOc1cc(CN2CCC3(CC2)CC(=O)N(c2ccc(C(=O)O)cc2)C3)cc(OCC)c1-c1ccc(OC(F)(F)F)cc1 [Example 37] | 0.6 nM | 0.485 nM
11 | CCOc1cc(CN2CCC3(CC2)CC(=O)N(c2ccc(C(=O)O)cc2)C3)cc(OCC)c1-c1cc(F)ccc1F [Example 44] | 0.28 nM | 1.55 nM
12 | CCOc1cc(CN2CCC3(CC2)CC(=O)N(c2ccc(C(=O)O)cc2)C3)cc(OCC)c1-c1ccc(F)c(F)c1F [Example 45] | 1.5 nM | 0.84 nM
13 | CCOc1cc(CN2CCC3(CC2)CC(=O)N(c2ccc(-c4n[nH]c(=O)o4)cc2)C3)cc(OCC)c1-c1ccc(F)cc1 [Example 49] | 34 nM | 8.9 nM
14 | CCOc1cc(CN2CCC3(CC2)CC(=O)N(Cc2cccc(C(=O)O)c2)C3)cc(OCC)c1-c1ccc(F)cc1 [Example 52] | 21 nM | 67 nM
15 | CCOc1cc(CN2CCC3(CC2)CC(=O)N(Cc2ccc(F)cc2)C3)cc(OCC)c1-c1ccc(F)cc1 [Example 53] | 8.6 nM | 3.9 nM
16 | CCOc1cc(CN2CCC3(CC2)CC(=O)N(c2cncc(C(=O)O)c2)C3)cc(OCC)c1-c1ccc(F)cc1 [Example 57] | 3.6 nM | 10 nM
17 | CCOc1cc(CN2CCC3(CC2)CC(=O)N(c2cccc(-c4nnn[nH]4)c2)C3)cc(OCC)c1-c1ccc(F)cc1 [Example 59] | 4.7 nM | 3.6 nM

Row | SMILES | IC50 [1] | Ki [2]
18 | CCOc1cc(CN2CCC3(CC2)CC(=O)N(c2cccc(C(N)=O)c2)C3)cc(OCC)c1-c1ccc(F)cc1 [Example 60] | 16 nM | 4.1 nM
19 | CCOc1cc(CN2CCC3(CC2)CC(=O)N(c2ccccc2S(C)(=O)=O)C3)cc(OCC)c1-c1ccc(F)cc1 [Example 61] | 13 nM | 2 nM
20 | CCOc1cc(CN2CCC3(CC2)CC(=O)N(c2ccc(C(=O)O)cc2)C3)cc(OCC)c1-c1ncc(F)cc1F [Example 65] | 3.6 nM | 4.5 nM
21 | O=C(O)c1ccc(N2CC3(CCN(Cc4cc(OC5CC5)c(-c5ncc(F)cc5F)c(OC5CC5)c4)CC3)CC2=O)cc1 [Example 66] | 1.8 nM | 4.5 nM
22 | CCOc1cc(CN2CCC3(CC2)CC(=O)N(c2ccc(O)nc2)C3)cc(OCC)c1-c1ccc(F)cc1 [Example 74] | 3.1 nM | 3.1 nM
23 | CCOc1cc(CN2CCC3(CC2)CC(=O)N(c2cncc(O)c2)C3)cc(OCC)c1-c1ccc(F)cc1 [Example 81] | 7.9 nM | 3.7 nM
24 | CCOc1cc(CN2CCC3(CC2)CC(=O)N(c2ccc(C(=O)O)cn2)C3)cc(OCC)c1-c1ccc(F)cc1 [Example 84] | 4.7 nM | 7.7 nM
25 | CCOc1cc(CN2CCC3(CC2)CC(=O)N(c2ccc(C(=O)O)nc2)C3)cc(OCC)c1-c1ccc(F)cc1 [Example 85] | 6.17 nM | 5.27 nM
26 | CCOc1cc(CN2CCC3(CC2)CC(=O)N(c2nccc(O)n2)C3)cc(OCC)c1-c1ccc(F)cc1 [Example 87] | 64 nM | 337 nM
27 | CCOc1ccc(-c2ccc(F)cc2F)c(CN2CCC3(CC2)CC(=O)N(c2ccc(C(=O)O)cc2)C3)c1 [Example 94] | 7.3 nM | 11 nM
28 | CCOc1ccc(-c2ccc(F)c(F)c2F)c(CN2CCC3(CC2)CC(=O)N(c2ccc(C(=O)O)cc2)C3)c1 [Example 97] | 1.8 nM | 7.5 nM
29 | CCOc1cc(CN2CCC3(CC2)CC(=O)N(c2ccc(C(=O)O)cc2)C3)cc(-c2ccc(F)cc2F)c1 [Example 107] | 36 nM | 40 nM
30 | CCOc1cc(CN2CCC3(CC2)CC(=O)N(c2ccc(C(=O)O)cc2)C3)cc(OCC)c1OCC [Example 148] | 82 nM | 157 nM
31 | CC(C)Oc1cc(CN2CCC3(CC2)CC(=O)N(c2ccc(C(=O)O)cc2)C3)cc(OC(C)C)c1C#N [Example 152] | 15 nM | 14 nM
32 | CCOc1cc(CN2CCC3(CC2)CC(=O)N(c2ccc(C(=O)O)cc2)C3)cc(OCC)c1OCC(F)(F)F [Example 153] | 42 nM | 55 nM
33 | CCOc1cc(CN2CCC3(CC2)CC(=O)N(c2ccc(C(=O)O)cc2)C3)ccc1Cl [Example 159] | 61 nM | 130 nM
34 | O=C(O)c1ccc(N2CC3(CCN(Cc4cc(O)c(-c5ccc(F)cc5)c(O)c4)CC3)CC2=O)cc1 [Example 162] | > 1000 nM | 1600 nM
